Holding throughout (experiment): relative viability (nuclei count vs DMSO), 5 days (fraction); higher = more cells survive
Compound in the assay “4EGI-1 + AZD7762”: O=C(O)C(Cc1ccccc1[N+](=O)[O-])=NNc1nc(-c2ccc(Cl)c(Cl)c2)cs1 (mixture of isomers) [4EGI-1] + NC(=O)Nc1cc(-c2cccc(F)c2)sc1C(=O)N[C@H]1CCCNC1 [AZD7762] (partner 0.2 µM)
The method in brief: (§1)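 The day after seeding in 1536-well plates, lung cancer cell lines were treated by pin tool with a single drug, or with a fixed anchor-drug dose together with five library-drug doses (not always all listed) in √10 steps. After 5 days, a combined fix-and-stain solution (final 0.05% Triton X-100, 1% formaldehyde, 1 ug/ml Hoechst) was added. Nuclei counted on 4× images gave relative viability as treated counts over vehicle counts, reported as the median of duplicate plates.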

Compound in the assay “4EGI-1 + Luminespib”: O=C(O)C(Cc1ccccc1[N+](=O)[O-])=NNc1nc(-c2ccc(Cl)c(Cl)c2)cs1 (mixture of isomers) [4EGI-1] + CCNC(=O)c1noc(-c2cc(C(C)C)c(O)cc2O)c1-c1ccc(CN2CCOCC2)cc1 [Luminespib] (partner 0.01 µM)
The essentials: as §1

Compound in the assay “4EGI-1 + Decitabine”: O=C(O)C(Cc1ccccc1[N+](=O)[O-])=NNc1nc(-c2ccc(Cl)c(Cl)c2)cs1 (mixture of isomers) [4EGI-1] + Nc1ncn([C@H]2C[C@H](O)[C@@H](CO)O2)c(=O)n1 [Decitabine] (partner 2 µM)
The essentials: as §1

Compound in the assay “XMD8-85 + Alpelisib”: CN1CCN(CC1)C2=CC(=C(C=C2)NC3=NC=C4C(=N3)N(C5=CC=CC=C5C(=O)N4C)C)OC [XMD8-85] + Cc1nc(NC(=O)N2CCC[C@H]2C(N)=O)sc1-c1ccnc(C(C)(C)C(F)(F)F)c1 [Alpelisib] (partner 2 µM)
The method in brief:
as §1

Regarding NCI-H1792, the relative viability came out at 0.67 with 4EGI-1 + AZD7762 (first compound 0.5 µM); 0.822 in the assay with 4EGI-1 + AZD7762 (first compound 1.581 µM); 0.861 in the assay with 4EGI-1 + AZD7762 (first compound 5 µM); 0.657 in the assay with 4EGI-1 + AZD7762 (first compound 15.81 µM); 0.0923 in the assay with 4EGI-1 + AZD7762 (first compound 50 µM); 0.917 in the assay with 4EGI-1 + Luminespib (first compound 0.5 µM). Moreover, the relative viability with 4EGI-1 + Luminespib (first compound 1.581 µM) was found to be 0.414; with 4EGI-1 + Luminespib (first compound 5 µM) it was 0.411; in the assay with 4EGI-1 + Luminespib (first compound 15.81 µM) it was 0.37; with 4EGI-1 + Luminespib (first compound 50 µM), 0.236; with 4EGI-1 + Decitabine (first compound 0.5 µM), 0.568; with 4EGI-1 + Decitabine (first compound 1.581 µM), 0.715. Moreover, the relative viability in the assay with 4EGI-1 + Decitabine (first compound 5 µM) was 0.6; with 4EGI-1 + Decitabine (first compound 15.81 µM) it was 0.488; in the assay with 4EGI-1 + Decitabine (first compound 50 µM), 0.369; with XMD8-85 + Alpelisib (first compound 0.08 µM) it was 0.627; with XMD8-85 + Alpelisib (first compound 0.253 µM) it was 0.642; with XMD8-85 + Alpelisib (first compound 2.53 µM), 0.562. Moreover, the relative viability in the assay with XMD8-85 + Alpelisib (first compound 8 µM) turned out to be 0.723.
